Test results published in patent publication US20240101699A1, “MODULATION OF CD46 CELL SURFACE EXPRESSION AND THERAPEUTIC USE THEREOF” (The Regents of the University of California, priority 2021, published 2024).

Tests used:
[1] = test system: CD46 cell surface expression on RPMI8226 cells; assay: CD46 cell surface expression on RPMI8226 cells by FACS / flow cytometry; type: cell-based; conditions: for CD46 upregulation on RPMI8226 cells: 7-day exposure to varying concentrations, FACS on day-7; for CD46 expression (FACS): RPMI8226 cells treated with IMiDs for 3 and 10 days; for CD46 cell surface expression (MFI, flow cytometry): RPMI8226, 7 days 37° C.
Protocol: Example 1: CD46 upregulation by exposure to pomalidomide and lenalidomide (FIGS. 1-2). The effect of pomalidomide and lenalidomide exposure to multiple myeloma (RPMI8226) cells was studied. RPMI8226 cells were treated with IMiDs (Pomalidomide and Lenalidomide) for 3 and 10 days (FIG. 1). CD46 expression was analyzed by FACS. CD38 was also measured as a reference. IMiDs-induced cell surface upregulation was observed only to selective antigens, e.g., CD46 but not CD38.
FACS was performed on day-7. […] FACS was performed on day-14.
FIG. 6: The multiple myeloma cell line RPMI8226 was incubated with 10 μM pomalidamide (pom) for 14 days, washed, and further incubated with 10 nM dexamethasone (dex) for 7 days. Cell surface CD46 expression was assessed by flow cytometry. MFI: median fluorescence intensity. Multiple group comparison was performed using One-way ANOVA. ** p<0.01; ****p<0.0001.
Methods: RMPI8226 cells were exposed to varying concentrations of the Stat3 inhibitor C188-9 and the glucocorticoid receptor inhibitor mifepristone for 7 days at 37° C. in culture media, and cell surface CD46 expression is detected by flow cytometry using the anti-CD46 antibody YS5 followed by AlexaFluo-617 labeled anti-human Fc secondary antibody. MFI (median fluorescence intensity) was recorded and analyzed by One-way ANOVA.

CD46 = biological target: T1, CD46 (human, UniProt P15529 35-392); assay: flow cytometry on RPMI8226 cells with a labelled anti-human Fc secondary antibody
T1 construct: whole, on cells; also called cell surface CD46
T1 sequence (looked up): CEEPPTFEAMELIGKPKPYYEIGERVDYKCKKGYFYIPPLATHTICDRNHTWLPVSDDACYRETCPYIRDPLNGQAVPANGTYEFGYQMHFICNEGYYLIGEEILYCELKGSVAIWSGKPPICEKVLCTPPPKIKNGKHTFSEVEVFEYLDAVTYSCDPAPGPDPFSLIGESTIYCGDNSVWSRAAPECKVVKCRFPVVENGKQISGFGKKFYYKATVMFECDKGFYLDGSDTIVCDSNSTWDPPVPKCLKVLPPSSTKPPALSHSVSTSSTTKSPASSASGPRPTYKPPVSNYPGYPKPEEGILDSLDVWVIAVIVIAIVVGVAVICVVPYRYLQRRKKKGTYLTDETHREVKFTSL
Protocol: MFI (median fluorescence intensity) was recorded and analyzed by One-way ANOVA.

For `Nc1cccc2c1CN(C1CCC(=O)NC1=O)C2=O` (stereo not drawn) [lenalidomide], the “CD46 upregulation on RPMI8226 cells” value [1] was “upregulation” and the “CD46 expression (FACS)” value [1] was “upregulation”.

In the case of `Nc1cccc2c1C(=O)N(C1CCC(=O)NC1=O)C2=O` (stereo not drawn) [pomalidomide], the “CD46 upregulation on RPMI8226 cells” value [1] is reported as “upregulation”, the “CD46 expression (FACS)” value [1] is reported as “upregulation” and the “CD46 upregulation on multiple myeloma cell surface” value ([1]; prior exposure for a short period (7-10 days)) is reported as “rather persistent CD46 upregulation”.

With `COc1ccc(S(=O)(=O)Nc2cc(-c3c(O)ccc4ccccc34)c(O)c3ccccc23)cc1` [C188-9, N-(1′, 2-Dihydroxy-1,2′-binaphthalen-4′-yl)-4-methoxybenzenesulfonamide] the “CD46 cell surface expression (MFI, flow cytometry)” value (from here on “CD46 cell surface expression”) ([1]; high concentrations (50 μM)) was “inhibits” and the “CD46 cell surface expression” value ([1]; low/mid concentrations (10 and 20 μM)) was “stimulates”.

`CC#C[C@]1(O)CC[C@H]2[C@@H]3CCC4=CC(=O)CCC4=C3[C@@H](c3ccc(N(C)C)cc3)C[C@@]21C` [mifepristone] was tested, and the “CD46 cell surface expression” value ([1]; mifepristone at high concentrations (50 μM)) was “inhibits”.

B1: YS5 (antibody, human IgG1, lambda, V domains shown)
VH: QVQLVQSGGGVVQPGRSLRLACAASGLTVNNYAMHWVRQAPGKGLEWVAVISYDGNNKYYADSVKGRFTISRDNSKNTLYLQMNSLRAEDTAVYYCAKGGGYFDLWGRGTLVTVSS
VL: QSVLTQPPSVSGAPGQRVTISCTGSSSNIGAGYDVHWYQQLPGTAPKLLIYGNNNRPSGVPDRFSGSKSGTSASLAITGLQAEDEADYYCSSYTSGTWLFGGGTKLTVLG
notes: The format used in the assay is not otherwise stated; also called YS5FL; anti-CD46 antibody YS5
B1: binds (CD46).
